Assay results published in PubChem BioAssay (NCI).
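The compound was tested at five concentrations on cells cultured in 96-well plates, with a 48-hour exposure period. TGI is the concentration that stops growth completely.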

Experiments:
Experiment in all cases: inhibition of tumour cell growth, NCI panel, 48 h
786-0 renal = tested on: 786-0 renal
A498 renal = tested on: A498 renal
A549 NSCLC = tested on: A549 NSCLC
ACHN renal = tested on: ACHN renal
CAKI-1 renal = tested on: CAKI-1 renal
CCRF-CEM leukemia = tested on: CCRF-CEM leukemia
COLO 205 colon = tested on: COLO 205 colon
DLD-1 colon = tested on: DLD-1 colon
DMS 114 small cell lung = tested on: DMS 114 small cell lung
DMS 273 small cell lung = tested on: DMS 273 small cell lung
EKVX NSCLC = tested on: EKVX NSCLC
HCC-2998 colon = tested on: HCC-2998 colon
HCT-116 colon = tested on: HCT-116 colon
HCT-15 colon = tested on: HCT-15 colon
HL-60(TB) leukemia = tested on: HL-60(TB) leukemia
HOP-18 NSCLC = tested on: HOP-18 NSCLC
HOP-62 NSCLC = tested on: HOP-62 NSCLC
HOP-92 NSCLC = tested on: HOP-92 NSCLC
HT29 colon = tested on: HT29 colon
IGROV1 ovarian = tested on: IGROV1 ovarian
K-562 leukemia = tested on: K-562 leukemia
KM12 colon = tested on: KM12 colon
KM20L2 colon = tested on: KM20L2 colon
LOX IMVI melanoma = tested on: LOX IMVI melanoma
LXFL 529 NSCLC = tested on: LXFL 529 NSCLC
M14 melanoma = tested on: M14 melanoma
M19-MEL melanoma = tested on: M19-MEL melanoma
MALME-3M melanoma = tested on: MALME-3M melanoma
MOLT-4 leukemia = tested on: MOLT-4 leukemia
NCI-H226 lung = tested on: NCI-H226 lung
NCI-H23 lung = tested on: NCI-H23 lung
NCI-H460 lung = tested on: NCI-H460 lung
NCI-H522 lung = tested on: NCI-H522 lung
OVCAR-3 ovarian = tested on: OVCAR-3 ovarian
OVCAR-4 ovarian = tested on: OVCAR-4 ovarian
OVCAR-5 ovarian = tested on: OVCAR-5 ovarian
OVCAR-8 ovarian = tested on: OVCAR-8 ovarian
RPMI-8226 leukemia = tested on: RPMI-8226 leukemia
SF-268 CNS = tested on: SF-268 CNS
SF-295 CNS = tested on: SF-295 CNS
SF-539 CNS = tested on: SF-539 CNS
SK-MEL-2 melanoma = tested on: SK-MEL-2 melanoma
SK-MEL-28 melanoma = tested on: SK-MEL-28 melanoma
SK-MEL-5 melanoma = tested on: SK-MEL-5 melanoma
SK-OV-3 ovarian = tested on: SK-OV-3 ovarian
SN12C renal = tested on: SN12C renal
SNB-19 CNS = tested on: SNB-19 CNS
SNB-75 CNS = tested on: SNB-75 CNS
SNB-78 CNS = tested on: SNB-78 CNS
SR leukemia = tested on: SR leukemia
SW-620 colon = tested on: SW-620 colon
TK-10 renal = tested on: TK-10 renal
U251 CNS = tested on: U251 CNS
UACC-257 melanoma = tested on: UACC-257 melanoma
UACC-62 melanoma = tested on: UACC-62 melanoma
UO-31 renal = tested on: UO-31 renal
XF 498 CNS = tested on: XF 498 CNS
RXF 393 renal = tested on: RXF 393 renal
RXF-631 renal = tested on: RXF-631 renal

NS(=O)(=O)c1ccc(NC(=O)c2cccc3c(=O)c4ccccc4[nH]c23)cc1
TGI (786-0 renal): > 100 µM | TGI (A498 renal): > 100 µM | TGI (A549 NSCLC): > 100 µM | TGI (ACHN renal): > 100 µM | TGI (CAKI-1 renal): > 100 µM | TGI (CCRF-CEM leukemia): > 100 µM | TGI (COLO 205 colon): > 100 µM | TGI (DLD-1 colon): > 100 µM | TGI (DMS 114 small cell lung): > 100 µM | TGI (DMS 273 small cell lung): > 100 µM | TGI (EKVX NSCLC): > 100 µM | TGI (HCC-2998 colon): > 100 µM | TGI (HCT-116 colon): > 100 µM | TGI (HCT-15 colon): > 100 µM | TGI (HL-60(TB) leukemia): > 100 µM | TGI (HOP-18 NSCLC): > 100 µM | TGI (HOP-62 NSCLC): > 100 µM | TGI (HOP-92 NSCLC): > 100 µM | TGI (HT29 colon): > 100 µM | TGI (IGROV1 ovarian): > 100 µM | TGI (K-562 leukemia): > 100 µM | TGI (KM12 colon): 73.6 µM | TGI (KM20L2 colon): > 100 µM | TGI (LOX IMVI melanoma): > 100 µM | TGI (LXFL 529 NSCLC): > 100 µM | TGI (M14 melanoma): > 100 µM | TGI (M19-MEL melanoma): > 100 µM | TGI (MALME-3M melanoma): 94.8 µM | TGI (MOLT-4 leukemia): > 100 µM | TGI (NCI-H226 lung): > 100 µM | TGI (NCI-H23 lung): > 100 µM | TGI (NCI-H460 lung): > 100 µM | TGI (NCI-H522 lung): 65.4 µM | TGI (OVCAR-3 ovarian): > 100 µM | TGI (OVCAR-4 ovarian): > 100 µM | TGI (OVCAR-5 ovarian): > 100 µM | TGI (OVCAR-8 ovarian): > 100 µM | TGI (RPMI-8226 leukemia): > 100 µM | TGI (SF-268 CNS): > 100 µM | TGI (SF-295 CNS): > 100 µM | TGI (SF-539 CNS): > 100 µM | TGI (SK-MEL-2 melanoma): > 100 µM | TGI (SK-MEL-28 melanoma): > 100 µM | TGI (SK-MEL-5 melanoma): > 100 µM | TGI (SK-OV-3 ovarian): 65.6 µM | TGI (SN12C renal): > 100 µM | TGI (SNB-19 CNS): > 100 µM | TGI (SNB-75 CNS): 55.2 µM | TGI (SNB-78 CNS): > 100 µM | TGI (SR leukemia): > 100 µM | TGI (SW-620 colon): > 100 µM | TGI (TK-10 renal): > 100 µM | TGI (U251 CNS): > 100 µM | TGI (UACC-257 melanoma): > 100 µM | TGI (UACC-62 melanoma): > 100 µM | TGI (UO-31 renal): 67.8 µM | TGI (XF 498 CNS): > 100 µM

CC(C)(C)C1(O)Cc2ccccc2C(=O)O1 (centres undefined)
TGI (786-0 renal): > 100 µM | TGI (A498 renal): > 100 µM | TGI (A549 NSCLC): > 100 µM | TGI (ACHN renal): > 100 µM | TGI (CAKI-1 renal): > 100 µM | TGI (CCRF-CEM leukemia): > 100 µM | TGI (COLO 205 colon): > 100 µM | TGI (DLD-1 colon): > 100 µM | TGI (DMS 114 small cell lung): > 100 µM | TGI (DMS 273 small cell lung): > 100 µM | TGI (EKVX NSCLC): > 100 µM | TGI (HCC-2998 colon): > 100 µM | TGI (HCT-116 colon): > 100 µM | TGI (HCT-15 colon): > 100 µM | TGI (HL-60(TB) leukemia): > 100 µM | TGI (HOP-18 NSCLC): > 100 µM | TGI (HOP-62 NSCLC): > 100 µM | TGI (HOP-92 NSCLC): > 100 µM | TGI (HT29 colon): > 100 µM | TGI (IGROV1 ovarian): > 100 µM | TGI (K-562 leukemia): > 100 µM | TGI (KM12 colon): > 100 µM | TGI (KM20L2 colon): > 100 µM | TGI (LOX IMVI melanoma): > 100 µM | TGI (LXFL 529 NSCLC): > 100 µM | TGI (M14 melanoma): > 100 µM | TGI (M19-MEL melanoma): > 100 µM | TGI (MALME-3M melanoma): > 100 µM | TGI (MOLT-4 leukemia): > 100 µM | TGI (NCI-H226 lung): > 100 µM | TGI (NCI-H23 lung): > 100 µM | TGI (NCI-H460 lung): > 100 µM | TGI (NCI-H522 lung): > 100 µM | TGI (OVCAR-3 ovarian): > 100 µM | TGI (OVCAR-4 ovarian): > 100 µM | TGI (OVCAR-5 ovarian): > 100 µM | TGI (OVCAR-8 ovarian): > 100 µM | TGI (RXF 393 renal): > 100 µM | TGI (RXF-631 renal): > 100 µM | TGI (SF-268 CNS): > 100 µM | TGI (SF-295 CNS): > 100 µM | TGI (SF-539 CNS): > 100 µM | TGI (SK-MEL-2 melanoma): > 100 µM | TGI (SK-MEL-28 melanoma): > 100 µM | TGI (SK-MEL-5 melanoma): > 100 µM | TGI (SK-OV-3 ovarian): > 100 µM | TGI (SN12C renal): > 100 µM | TGI (SNB-19 CNS): > 100 µM | TGI (SNB-75 CNS): > 100 µM | TGI (SNB-78 CNS): > 100 µM | TGI (SR leukemia): > 100 µM | TGI (SW-620 colon): > 100 µM | TGI (TK-10 renal): > 100 µM | TGI (U251 CNS): > 100 µM | TGI (UACC-257 melanoma): > 100 µM | TGI (UACC-62 melanoma): > 100 µM | TGI (UO-31 renal): > 100 µM
